# According to US20040077664A1, “Pharmaceutical formulation comprising pyrazolo[4,3-d]pyrimidine and nitrates or thienopyrimidines and nitrates” (priority 2001, published 2004):
# Counter-ions that a name gives are not always drawn.
row,SMILES,melting point
1,"COc1ccc(CNc2nc(CCC(=O)O)nc3sc4c(c23)CCCC4)cc1Cl [Example 2 (formula I-I), 3-[4-(3-chloro-4-methoxybenzylamino)-5,6,7,8-tetrahydro-[1]-benzothieno[2,3-d]pyrimidin-2-yl]propionic acid]",229 °C
2,"COC(=O)c1ccc(-c2nc(NCc3ccc(OC)c(Cl)c3)c3c(n2)sc2ccccc23)cc1 [Example 3 (formula I-II), methyl 4-[4-(3-chloro-4-methoxybenzylamino)-[1]-benzothieno[2,3-d]pyrimidin-2-yl]benzoate]",203 to 204 °C
3,"CCCc1nn(C)c2c(NCc3ccc(OC)c(Cl)c3)nc(CCC(=O)O)nc12 [Example 2 (formula I), 3-[7-(3-chloro-4-methoxybenzylamino)-1-methyl-3-propyl-1H-pyrazolo-[4,3-d]pyrimidin-5-yl]propionic acid]",178 °C
4,"COc1ccc(CNc2nc(CCC(=O)O)nc3sc4c(c23)CCCC4)cc1Cl (as salt: salt) [Example 2 (formula I-I), 3-[4-(3-chloro-4-methoxybenzylamino)-5,6,7,8-tetrahydro-[1]-benzothieno[2,3-d]pyrimidin-2-yl]propionic acid]",135 °C
5,"COc1ccc(CNc2nc(CCC(=O)O)nc3sc4ccccc4c23)cc1Cl [Example 2 (formula I-II), 3-[4-(3-chloro-4-methoxybenzylamino)benzothieno[2,3-d]pyrimidin-2-yl]propionic acid]",218 °C
